Test systems include A498 renal; T-47D breast; MOLT-4 leukemia; HCC-2998 colon; HL-60(TB) leukemia; CCRF-CEM leukemia; SK-OV-3 ovarian; UACC-257 melanoma; SR leukemia; DU-145 prostate; SF-539 CNS; M14 melanoma; HOP-62 NSCLC; HT29 colon.
What all share (assay): NCI anticancer screen, dose series, 48 h

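Cultured in 96-well plates, cells were exposed to test compound for 48 hours across five concentrations. TGI denotes the concentration required for complete inhibition of growth.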

Regarding `O=C1c2c(Br)sc(Br)c2[C@@H](NC(=O)C(F)(F)F)C1Br` (stereo partly drawn), the TGI in the test with A498 renal is 28.7 µM; in the test with T-47D breast, 14.7 µM; in the test with MOLT-4 leukemia, 5.32 µM; in the test on HCC-2998 colon, 7.8 µM; with HL-60(TB) leukemia it was 1.59 µM; in the test with CCRF-CEM leukemia, 5.64 µM. For the same compound, the TGI in the test on SK-OV-3 ovarian worked out at 32.8 µM; in the test with UACC-257 melanoma it was 3.97 µM; in the test on SR leukemia, 5.3 µM; in the test on DU-145 prostate, 18.3 µM; with SF-539 CNS, 6.82 µM; with M14 melanoma, 6.23 µM. In addition, the TGI with HOP-62 NSCLC turned out to be 28.2 µM; in the test on HT29 colon it was 5.77 µM.
Consider `COc1ccc2c3c1O[C@H](c1ccc(O)cc1)[C@H]3[N+](C)(C)CC2`, for which the TGI in the test with A498 renal was over 100 µM; with T-47D breast it was over 100 µM; with MOLT-4 leukemia, over 100 µM; in the test on HCC-2998 colon, over 100 µM; in the test with HL-60(TB) leukemia, 96.1 µM; in the test with CCRF-CEM leukemia, over 100 µM. The TGI with SK-OV-3 ovarian, in the test on UACC-257 melanoma, in the test with SR leukemia, in the test on DU-145 prostate, in the test on SF-539 CNS and in the test on M14 melanoma was over 100 µM throughout. The TGI in the test on HOP-62 NSCLC and in the test on HT29 colon was over 100 µM each time.
Regarding `COc1cc(Oc2nc3ccc(C(F)(F)F)cc3nc2-c2ccccc2)cc(OC)c1OC`, the TGI in the test with A498 renal is over 100 µM; in the test with T-47D breast it was over 100 µM; in the test with HCC-2998 colon, over 100 µM; with HL-60(TB) leukemia it was over 100 µM; in the test on CCRF-CEM leukemia, over 100 µM; in the test with SK-OV-3 ovarian, 33.4 µM. Also, the TGI with UACC-257 melanoma was over 100 µM; in the test with SR leukemia it was over 100 µM; in the test on DU-145 prostate, over 100 µM; with SF-539 CNS it was 60.8 µM; in the test with HOP-62 NSCLC, 44.4 µM; in the test on HT29 colon it was over 100 µM.
Turning to `Clc1ccc2oc(CCc3ccccc3)nc2c1`, the TGI with A498 renal was 60 µM; in the test on T-47D breast, over 100 µM; with MOLT-4 leukemia, over 100 µM; in the test with HCC-2998 colon, 77.1 µM; with HL-60(TB) leukemia it was over 100 µM; in the test with CCRF-CEM leukemia it was over 100 µM. For the same compound, the TGI in the test with SK-OV-3 ovarian, in the test with UACC-257 melanoma, in the test on SR leukemia, in the test on DU-145 prostate, in the test with SF-539 CNS and in the test with M14 melanoma was over 100 µM in each case. Besides, the TGI in the test with HOP-62 NSCLC and in the test on HT29 colon was over 100 µM throughout.
Regarding `CCCCNc1nc(NC2OCC(OC(C)=O)C(OC(C)=O)C2OC(C)=O)c(N=O)c(=O)n1C` (stereo not drawn), the TGI with A498 renal, in the test on T-47D breast, with MOLT-4 leukemia, with HCC-2998 colon, in the test on HL-60(TB) leukemia and with CCRF-CEM leukemia was over 10 µM each time. Moreover, the TGI in the test on SK-OV-3 ovarian, in the test on UACC-257 melanoma, in the test with SR leukemia, with DU-145 prostate, in the test on SF-539 CNS and with M14 melanoma was over 10 µM each time. The TGI in the test on HOP-62 NSCLC and in the test with HT29 colon was over 10 µM each time.
For the compound `COC(=O)C(Cc1c[nH]c2ccccc12)N=C1Nc2ccncc2S(=O)(=O)N1c1cccc(OC(C)C)c1` (stereo not drawn), the TGI is over 100 µM in the test on A498 renal; over 100 µM in the test on T-47D breast; 75.8 µM in the test on MOLT-4 leukemia; over 100 µM in the test with HCC-2998 colon; 59.3 µM with HL-60(TB) leukemia; over 100 µM in the test on CCRF-CEM leukemia. Further, the TGI was over 100 µM with SK-OV-3 ovarian; over 100 µM in the test on UACC-257 melanoma; 79.7 µM with SR leukemia; over 100 µM with DU-145 prostate; over 100 µM in the test on SF-539 CNS; over 100 µM with M14 melanoma. For the same compound, the TGI in the test with HOP-62 NSCLC and in the test with HT29 colon was over 100 µM throughout.
For the compound `CC1(C)CC(=O)c2c(nc3c4c([nH]c(-c5ccc(Br)cc5)c24)CC(C)(C)C3)C1`, the TGI in the test with A498 renal is 86.7 µM; with T-47D breast, over 100 µM; with MOLT-4 leukemia it was over 100 µM; in the test with HCC-2998 colon, over 100 µM; in the test on HL-60(TB) leukemia, over 100 µM; in the test on CCRF-CEM leukemia it was over 100 µM. Moreover, the TGI in the test with SK-OV-3 ovarian is over 100 µM; in the test with UACC-257 melanoma, over 100 µM; in the test with SR leukemia it was 59.1 µM; with DU-145 prostate, over 100 µM; with SF-539 CNS, over 100 µM; in the test on M14 melanoma it was over 100 µM. Also, the TGI with HOP-62 NSCLC and with HT29 colon was over 100 µM throughout.
Consider `C=CCC1(C)CCCN(Cc2ccccc2)C1=O` (stereo not drawn), for which the TGI with A498 renal was 3.91 µM; in the test with T-47D breast, over 10 µM; in the test with MOLT-4 leukemia, over 10 µM; with HCC-2998 colon it was over 10 µM; with HL-60(TB) leukemia it was over 10 µM; in the test on CCRF-CEM leukemia it was over 10 µM. For the same compound, the TGI in the test on SK-OV-3 ovarian, in the test on UACC-257 melanoma, in the test on SR leukemia, with DU-145 prostate, in the test with SF-539 CNS and in the test with M14 melanoma was over 10 µM in each case. Moreover, the TGI in the test on HOP-62 NSCLC and in the test with HT29 colon was over 10 µM throughout.
In the case of `O=C(O)c1ccccc1N=Nc1c(O)c(S(=O)(=O)O)cc2cc(S(=O)(=O)O)ccc12`, the TGI in the test on A498 renal, in the test with T-47D breast, with MOLT-4 leukemia, in the test with HCC-2998 colon, with HL-60(TB) leukemia and in the test with CCRF-CEM leukemia was over 100 µM in each case. Besides, the TGI in the test on SK-OV-3 ovarian, with UACC-257 melanoma, with SR leukemia, in the test with DU-145 prostate, in the test with SF-539 CNS and in the test with M14 melanoma was over 100 µM in each case. Also, the TGI in the test on HOP-62 NSCLC and in the test with HT29 colon was over 100 µM each time.
Regarding `O=[N+]([O-])c1ccc(C(O)(C#CCN2CCCC2)c2ccccc2)cc1` (stereo not drawn), the TGI is 76.6 µM in the test with A498 renal; 98.9 µM with T-47D breast; 64.4 µM with MOLT-4 leukemia; 35.8 µM in the test on HCC-2998 colon; 36.5 µM in the test with HL-60(TB) leukemia; 57.5 µM in the test with CCRF-CEM leukemia. Moreover, the TGI in the test with SK-OV-3 ovarian was over 100 µM; in the test with UACC-257 melanoma, 58.7 µM; in the test with SR leukemia it was 44.2 µM; in the test on DU-145 prostate it was over 100 µM; in the test with SF-539 CNS, over 100 µM; in the test with M14 melanoma, 33.6 µM. Moreover, the TGI was over 100 µM in the test on HOP-62 NSCLC and 34 µM with HT29 colon.

For the origin of these results see PubChem BioAssay (NCI).
